Source: ChEMBL document CHEMBL3232845 (Bioorg Med Chem Lett, 2014)

What was measured:
[1] = target: Serine/threonine-protein kinase B-raf (Homo sapiens, UniProt P15056, V600E); experiment: Inhibition of full-length B-Raf V600E mutant (unknown origin)
[2] = Antitumor activity against human LOX cells expressing B-Raf V600E mutant xenografted in nude mouse assessed as tumor growth inhibition at 30 mg/kg qd for 4 days measured on day 5; type: functional; settings: read-out: TGI
[3] = target: NUAK family SNF1-like kinase 1 (Homo sapiens) (UniProt O60285); experiment: Inhibition of human ARK5 assessed as enzyme activity at 1 uM relative to control; parameters: scale not given: the % may be the effect or the level left
[4] = target: Calcium/calmodulin-dependent protein kinase type 1D (Homo sapiens) (UniProt Q8IU85); experiment: Inhibition of human CAMK1d assessed as enzyme activity at 1 uM relative to control; parameters: scale not given: the % may be the effect or the level left
Calcium/calmodulin-dependent protein kinase type 1D (Homo sapiens), sequence (Q8IU85 whole entry, looked up): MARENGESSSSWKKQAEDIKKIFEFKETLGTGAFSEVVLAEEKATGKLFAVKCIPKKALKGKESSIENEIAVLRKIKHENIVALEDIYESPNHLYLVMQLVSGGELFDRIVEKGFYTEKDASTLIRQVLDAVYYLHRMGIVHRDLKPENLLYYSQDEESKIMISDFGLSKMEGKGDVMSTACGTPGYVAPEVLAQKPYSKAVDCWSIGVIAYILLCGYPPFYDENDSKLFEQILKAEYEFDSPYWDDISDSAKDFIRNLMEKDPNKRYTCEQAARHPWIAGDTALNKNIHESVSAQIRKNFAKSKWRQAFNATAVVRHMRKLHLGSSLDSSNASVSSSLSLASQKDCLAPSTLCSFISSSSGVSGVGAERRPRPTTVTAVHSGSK

[5] = target: Serine/threonine-protein kinase Chk1 (Homo sapiens) (UniProt O14757); experiment: Inhibition of human CHK1 assessed as enzyme activity at 1 uM relative to control; parameters: scale not given: the % may be the effect or the level left
[6] = target: Tyrosine-protein kinase CSK (Homo sapiens) (UniProt P41240); experiment: Inhibition of human CSK assessed as enzyme activity at 1 uM relative to control; parameters: scale not given: the % may be the effect or the level left
[7] = target: Tyrosine-protein kinase SYK (Homo sapiens) (UniProt P43405); experiment: Inhibition of human Syk assessed as enzyme activity at 1 uM relative to control; parameters: scale not given: the % may be the effect or the level left
[8] = target: Serine/threonine-protein kinase TAO2 (Homo sapiens) (UniProt Q9UL54); experiment: Inhibition of human TAO2 assessed as enzyme activity at 1 uM relative to control; parameters: scale not given: the % may be the effect or the level left
[9] = target: Testis-specific serine/threonine-protein kinase 1 (Homo sapiens) (UniProt Q9BXA7); experiment: Inhibition of human TSSK1 assessed as enzyme activity at 1 uM relative to control; parameters: scale not given: the % may be the effect or the level left
[10] = target: Angiopoietin-1 receptor (Homo sapiens) (UniProt Q02763); experiment: Inhibition of human Tie2 assessed as enzyme activity at 1 uM relative to control; parameters: scale not given: the % may be the effect or the level left
[11] = target: Serine/threonine-protein kinase WNK2 (Homo sapiens) (UniProt Q9Y3S1); experiment: Inhibition of human WNK2 assessed as enzyme activity at 1 uM relative to control; parameters: scale not given: the % may be the effect or the level left
[12] = target: Tyrosine-protein kinase ZAP-70 (Homo sapiens) (UniProt P43403); experiment: Inhibition of human ZAP-70 assessed as enzyme activity at 1 uM relative to control; parameters: scale not given: the % may be the effect or the level left
[13] = target: Serine/threonine-protein kinase mTOR (Homo sapiens) (UniProt P42345); experiment: Inhibition of human mTOR assessed as enzyme activity at 1 uM relative to control; parameters: scale not given: the % may be the effect or the level left
[14] = target: Ribosomal protein S6 kinase alpha-4 (Homo sapiens) (UniProt O75676); experiment: Inhibition of human MSK2 assessed as enzyme activity at 1 uM relative to control; parameters: scale not given: the % may be the effect or the level left
[15] = target: Serine/threonine-protein kinase 24 (Homo sapiens) (UniProt Q9Y6E0); experiment: Inhibition of human MST3 assessed as enzyme activity at 1 uM relative to control; parameters: scale not given: the % may be the effect or the level left
[16] = target: Myosin light chain kinase, smooth muscle (Homo sapiens) (UniProt Q15746); experiment: Inhibition of human MYLK assessed as enzyme activity at 1 uM relative to control; parameters: scale not given: the % may be the effect or the level left
[17] = target: Tyrosine-protein kinase Mer (Homo sapiens) (UniProt Q12866); experiment: Inhibition of human Mer assessed as enzyme activity at 1 uM relative to control; parameters: scale not given: the % may be the effect or the level left
[18] = target: Serine/threonine-protein kinase Nek6 (Homo sapiens) (UniProt Q9HC98); experiment: Inhibition of human NEK6 assessed as enzyme activity at 1 uM relative to control; parameters: scale not given: the % may be the effect or the level left
[19] = target: Serine/threonine-protein kinase NLK (Homo sapiens) (UniProt Q9UBE8); experiment: Inhibition of human NLK assessed as enzyme activity at 1 uM relative to control; parameters: scale not given: the % may be the effect or the level left
[20] = target: Serine/threonine-protein kinase PAK 2 (Homo sapiens) (UniProt Q13177); experiment: Inhibition of human PAK2 assessed as enzyme activity at 1 uM relative to control; parameters: scale not given: the % may be the effect or the level left
[21] = target: Protein kinase C delta type (Homo sapiens) (UniProt Q05655); experiment: Inhibition of human PKCdelta assessed as enzyme activity at 1 uM relative to control; parameters: scale not given: the % may be the effect or the level left
Protein kinase C delta type (Homo sapiens), sequence (Q05655 whole entry, looked up): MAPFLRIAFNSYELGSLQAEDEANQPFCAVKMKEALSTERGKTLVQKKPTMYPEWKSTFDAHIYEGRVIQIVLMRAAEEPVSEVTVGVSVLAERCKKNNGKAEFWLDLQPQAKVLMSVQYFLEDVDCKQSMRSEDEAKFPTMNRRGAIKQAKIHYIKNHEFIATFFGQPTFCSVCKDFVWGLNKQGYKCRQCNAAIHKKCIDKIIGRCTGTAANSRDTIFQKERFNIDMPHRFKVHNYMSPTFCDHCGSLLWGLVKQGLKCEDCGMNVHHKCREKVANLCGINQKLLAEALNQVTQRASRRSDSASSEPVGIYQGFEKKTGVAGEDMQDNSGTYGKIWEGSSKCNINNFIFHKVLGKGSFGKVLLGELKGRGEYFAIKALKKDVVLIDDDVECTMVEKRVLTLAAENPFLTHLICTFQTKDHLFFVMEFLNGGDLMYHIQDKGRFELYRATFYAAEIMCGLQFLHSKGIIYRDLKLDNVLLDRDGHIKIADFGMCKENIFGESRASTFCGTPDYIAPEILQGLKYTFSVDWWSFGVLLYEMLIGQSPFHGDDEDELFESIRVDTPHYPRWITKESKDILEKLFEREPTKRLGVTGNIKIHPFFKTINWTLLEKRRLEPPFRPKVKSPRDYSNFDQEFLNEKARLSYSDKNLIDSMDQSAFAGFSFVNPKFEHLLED

[22] = target: Serine/threonine-protein kinase D2 (Homo sapiens) (UniProt Q9BZL6); experiment: Inhibition of human PKD2 assessed as enzyme activity at 1 uM relative to control; parameters: scale not given: the % may be the effect or the level left
[23] = target: cGMP-dependent protein kinase 1 (Homo sapiens) (UniProt Q13976); experiment: Inhibition of human PRKG1alpha assessed as enzyme activity at 1 uM relative to control; parameters: scale not given: the % may be the effect or the level left
[24] = target: Rho-associated protein kinase 1 (Homo sapiens) (UniProt Q13464); experiment: Inhibition of human ROCK-1 assessed as enzyme activity at 1 uM relative to control; parameters: scale not given: the % may be the effect or the level left
[25] = target: Ephrin type-B receptor 3 (Homo sapiens) (UniProt P54753); experiment: Inhibition of human EphB3 assessed as enzyme activity at 1 uM relative to control; parameters: scale not given: the % may be the effect or the level left
Ephrin type-B receptor 3 (Homo sapiens), sequence (P54753 whole entry): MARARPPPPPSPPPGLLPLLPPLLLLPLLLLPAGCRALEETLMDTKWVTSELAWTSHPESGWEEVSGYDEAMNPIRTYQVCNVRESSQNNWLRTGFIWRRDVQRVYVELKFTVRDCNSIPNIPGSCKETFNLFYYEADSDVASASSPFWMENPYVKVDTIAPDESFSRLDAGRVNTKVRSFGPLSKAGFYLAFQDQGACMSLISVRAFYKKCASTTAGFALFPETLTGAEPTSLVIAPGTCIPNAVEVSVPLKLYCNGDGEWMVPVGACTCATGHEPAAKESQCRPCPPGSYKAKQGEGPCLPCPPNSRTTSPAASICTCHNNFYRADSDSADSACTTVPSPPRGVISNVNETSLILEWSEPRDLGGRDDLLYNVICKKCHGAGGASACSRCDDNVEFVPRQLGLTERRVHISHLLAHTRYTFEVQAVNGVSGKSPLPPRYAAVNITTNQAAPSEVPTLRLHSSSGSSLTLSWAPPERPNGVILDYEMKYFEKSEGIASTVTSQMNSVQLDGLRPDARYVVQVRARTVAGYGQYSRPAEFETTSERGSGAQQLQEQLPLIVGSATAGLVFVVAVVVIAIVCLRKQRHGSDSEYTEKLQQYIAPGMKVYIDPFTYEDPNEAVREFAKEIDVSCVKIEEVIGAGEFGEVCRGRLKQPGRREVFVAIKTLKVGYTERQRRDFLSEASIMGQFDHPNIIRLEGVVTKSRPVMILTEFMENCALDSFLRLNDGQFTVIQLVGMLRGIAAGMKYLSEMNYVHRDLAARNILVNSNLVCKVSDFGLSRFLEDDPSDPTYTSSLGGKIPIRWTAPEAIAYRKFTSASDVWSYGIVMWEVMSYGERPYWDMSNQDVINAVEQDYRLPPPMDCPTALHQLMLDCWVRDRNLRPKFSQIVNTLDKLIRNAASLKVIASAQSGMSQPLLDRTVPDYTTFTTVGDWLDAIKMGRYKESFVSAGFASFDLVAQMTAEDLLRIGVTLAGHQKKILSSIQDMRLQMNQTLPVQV

[26] = target: Protein-tyrosine kinase 2-beta (Homo sapiens) (UniProt Q14289); experiment: Inhibition of human FAK2 assessed as enzyme activity at 1 uM relative to control; parameters: scale not given: the % may be the effect or the level left
Protein-tyrosine kinase 2-beta (Homo sapiens), sequence (Q14289 whole entry, looked up): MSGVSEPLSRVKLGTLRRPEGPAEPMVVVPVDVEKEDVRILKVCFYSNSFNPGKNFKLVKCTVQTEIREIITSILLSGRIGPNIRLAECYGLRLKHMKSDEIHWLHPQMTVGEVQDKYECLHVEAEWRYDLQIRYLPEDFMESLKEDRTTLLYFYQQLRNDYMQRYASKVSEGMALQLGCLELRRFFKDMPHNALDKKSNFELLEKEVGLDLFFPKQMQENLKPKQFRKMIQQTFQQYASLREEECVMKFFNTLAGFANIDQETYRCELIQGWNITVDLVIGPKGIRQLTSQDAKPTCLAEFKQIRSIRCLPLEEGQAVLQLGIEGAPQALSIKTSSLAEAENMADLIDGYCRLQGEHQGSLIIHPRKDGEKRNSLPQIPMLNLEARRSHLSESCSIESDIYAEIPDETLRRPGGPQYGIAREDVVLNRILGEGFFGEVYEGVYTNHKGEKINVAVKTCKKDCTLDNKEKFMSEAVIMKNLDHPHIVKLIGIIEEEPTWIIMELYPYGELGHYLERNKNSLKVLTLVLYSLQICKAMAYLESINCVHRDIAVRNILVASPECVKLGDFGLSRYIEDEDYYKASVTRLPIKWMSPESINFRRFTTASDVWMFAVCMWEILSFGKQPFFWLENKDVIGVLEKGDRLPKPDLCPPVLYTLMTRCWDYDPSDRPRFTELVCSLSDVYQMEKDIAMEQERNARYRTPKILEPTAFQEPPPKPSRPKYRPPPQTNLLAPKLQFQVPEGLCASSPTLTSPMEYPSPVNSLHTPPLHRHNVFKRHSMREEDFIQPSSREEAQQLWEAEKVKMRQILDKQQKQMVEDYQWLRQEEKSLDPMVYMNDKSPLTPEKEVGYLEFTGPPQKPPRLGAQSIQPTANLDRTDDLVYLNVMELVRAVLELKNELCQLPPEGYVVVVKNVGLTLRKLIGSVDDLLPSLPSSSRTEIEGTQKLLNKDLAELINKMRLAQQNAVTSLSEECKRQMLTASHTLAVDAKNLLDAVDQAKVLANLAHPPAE

[27] = target: Fibroblast growth factor receptor 2 (Homo sapiens) (UniProt P21802); experiment: Inhibition of human FGFR2 assessed as enzyme activity at 1 uM relative to control; parameters: scale not given: the % may be the effect or the level left
[28] = target: Tyrosine-protein kinase Fes/Fps (Homo sapiens) (UniProt P07332); experiment: Inhibition of human Fes assessed as enzyme activity at 1 uM relative to control; parameters: scale not given: the % may be the effect or the level left
[29] = target: Vascular endothelial growth factor receptor 1 (Homo sapiens) (UniProt P17948); experiment: Inhibition of human Flt1 assessed as enzyme activity at 1 uM relative to control; parameters: scale not given: the % may be the effect or the level left
[30] = target: G protein-coupled receptor kinase 5 (Homo sapiens) (UniProt P34947); experiment: Inhibition of human GRK5 assessed as enzyme activity at 1 uM relative to control; parameters: scale not given: the % may be the effect or the level left
[31] = target: G protein-coupled receptor kinase 6 (Homo sapiens) (UniProt P43250); experiment: Inhibition of human GRK6 assessed as enzyme activity at 1 uM relative to control; parameters: scale not given: the % may be the effect or the level left
[32] = target: Glycogen synthase kinase-3 alpha (Homo sapiens) (UniProt P49840); experiment: Inhibition of human GSK3alpha assessed as enzyme activity at 1 uM relative to control; parameters: scale not given: the % may be the effect or the level left
[33] = target: Interleukin-1 receptor-associated kinase 1 (Homo sapiens) (UniProt P51617); experiment: Inhibition of human IRAK1 assessed as enzyme activity at 1 uM relative to control; parameters: scale not given: the % may be the effect or the level left
[34] = target: Vascular endothelial growth factor receptor 2 (Homo sapiens) (UniProt P35968); experiment: Inhibition of human KDR assessed as enzyme activity at 1 uM relative to control; parameters: scale not given: the % may be the effect or the level left
[35] = target: Tyrosine-protein kinase Lyn (Homo sapiens) (UniProt P07948); experiment: Inhibition of human Lyn assessed as enzyme activity at 1 uM relative to control; parameters: scale not given: the % may be the effect or the level left
[36] = target: Mitogen-activated protein kinase kinase kinase 5 (Homo sapiens) (UniProt Q99683); experiment: Inhibition of human MAP3K5 assessed as enzyme activity at 1 uM relative to control; parameters: scale not given: the % may be the effect or the level left
Mitogen-activated protein kinase kinase kinase 5 (Homo sapiens), sequence (Q99683 whole entry): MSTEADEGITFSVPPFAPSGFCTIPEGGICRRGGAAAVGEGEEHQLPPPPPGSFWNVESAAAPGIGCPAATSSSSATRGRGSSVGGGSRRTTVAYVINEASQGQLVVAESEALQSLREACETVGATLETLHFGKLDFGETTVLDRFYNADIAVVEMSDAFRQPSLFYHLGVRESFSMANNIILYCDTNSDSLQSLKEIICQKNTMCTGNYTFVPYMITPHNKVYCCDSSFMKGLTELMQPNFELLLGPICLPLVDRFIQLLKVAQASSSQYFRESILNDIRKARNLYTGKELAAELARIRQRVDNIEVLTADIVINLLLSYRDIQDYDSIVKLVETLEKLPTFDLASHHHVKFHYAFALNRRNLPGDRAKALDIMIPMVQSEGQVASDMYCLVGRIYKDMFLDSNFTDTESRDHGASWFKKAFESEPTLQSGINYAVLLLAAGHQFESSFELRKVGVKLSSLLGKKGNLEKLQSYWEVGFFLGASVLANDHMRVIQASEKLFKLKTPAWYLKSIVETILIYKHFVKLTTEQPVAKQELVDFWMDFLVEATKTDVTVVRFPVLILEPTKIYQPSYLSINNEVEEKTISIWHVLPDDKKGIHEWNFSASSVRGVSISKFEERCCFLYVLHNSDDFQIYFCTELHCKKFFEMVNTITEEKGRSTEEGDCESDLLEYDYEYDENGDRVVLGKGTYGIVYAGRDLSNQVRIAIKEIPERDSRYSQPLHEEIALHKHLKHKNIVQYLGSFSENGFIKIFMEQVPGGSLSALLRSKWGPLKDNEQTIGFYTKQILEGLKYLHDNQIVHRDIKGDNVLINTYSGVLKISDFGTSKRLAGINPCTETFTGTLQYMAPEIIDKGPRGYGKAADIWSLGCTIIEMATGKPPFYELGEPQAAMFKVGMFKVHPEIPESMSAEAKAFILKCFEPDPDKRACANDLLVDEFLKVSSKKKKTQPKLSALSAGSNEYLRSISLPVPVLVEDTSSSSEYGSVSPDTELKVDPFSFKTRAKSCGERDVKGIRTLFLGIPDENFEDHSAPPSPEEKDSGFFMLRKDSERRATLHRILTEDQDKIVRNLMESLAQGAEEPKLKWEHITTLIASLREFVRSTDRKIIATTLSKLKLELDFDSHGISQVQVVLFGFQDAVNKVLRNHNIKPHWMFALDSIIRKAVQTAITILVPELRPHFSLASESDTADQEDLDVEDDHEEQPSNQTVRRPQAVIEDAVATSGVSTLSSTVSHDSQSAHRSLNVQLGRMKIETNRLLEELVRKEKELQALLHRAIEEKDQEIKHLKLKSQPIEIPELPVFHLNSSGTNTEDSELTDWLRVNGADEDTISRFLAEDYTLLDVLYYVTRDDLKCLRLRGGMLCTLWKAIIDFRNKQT

[37] = target: Maternal embryonic leucine zipper kinase (Homo sapiens) (UniProt Q14680); experiment: Inhibition of human MELK assessed as enzyme activity at 1 uM relative to control; parameters: scale not given: the % may be the effect or the level left
Maternal embryonic leucine zipper kinase (Homo sapiens), sequence (Q14680 whole entry, looked up): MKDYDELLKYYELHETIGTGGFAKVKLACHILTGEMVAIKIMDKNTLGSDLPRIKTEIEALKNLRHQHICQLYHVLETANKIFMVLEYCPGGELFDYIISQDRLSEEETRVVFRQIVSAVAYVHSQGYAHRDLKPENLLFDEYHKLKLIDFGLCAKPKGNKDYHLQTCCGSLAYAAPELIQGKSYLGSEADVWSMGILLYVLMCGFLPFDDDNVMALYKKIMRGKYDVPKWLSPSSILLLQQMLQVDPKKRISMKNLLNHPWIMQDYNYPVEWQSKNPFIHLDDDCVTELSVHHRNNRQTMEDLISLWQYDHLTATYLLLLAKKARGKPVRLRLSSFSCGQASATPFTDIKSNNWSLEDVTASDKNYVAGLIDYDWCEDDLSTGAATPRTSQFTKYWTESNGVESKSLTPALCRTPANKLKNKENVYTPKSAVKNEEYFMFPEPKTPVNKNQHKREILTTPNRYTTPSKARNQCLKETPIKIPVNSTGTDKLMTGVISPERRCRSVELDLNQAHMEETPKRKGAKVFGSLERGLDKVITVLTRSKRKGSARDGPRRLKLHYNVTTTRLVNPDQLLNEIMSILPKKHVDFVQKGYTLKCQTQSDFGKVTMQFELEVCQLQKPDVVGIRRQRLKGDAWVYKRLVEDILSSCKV

[38] = target: Ribosomal protein S6 kinase alpha-6 (Homo sapiens) (UniProt Q9UK32); experiment: Inhibition of human Rsk4 assessed as enzyme activity at 1 uM relative to control; parameters: scale not given: the % may be the effect or the level left

IC50 [1]: 0.3 nM
Activity [3]: 109%
Activity [4]: 116%
Activity [5]: 106%
Activity [6]: 111%
Activity [7]: 117%
Activity [8]: 97%
Activity [9]: 98%
Activity [10]: 118%
Activity [11]: 100%
Activity [12]: 112%
Activity [13]: 101%
Activity [14]: 111%
Activity [15]: 100%
Activity [16]: 106%
Activity [17]: 89.5%
Activity [18]: 116%
Activity [19]: 102%
Activity [20]: 114%
Activity [21]: 100%
Activity [22]: 95.5%
Activity [23]: 112%
Activity [24]: 108%
Activity [25]: 91.5%
Activity [26]: 85.5%
Activity [27]: 99.5%
Activity [28]: 92%
Activity [29]: 93.5%
Activity [30]: 102%
Activity [31]: 103%
Activity [32]: 122%
Activity [33]: 108%
Activity [34]: 112%
Activity [35]: 98%
Activity [36]: 96%
Activity [37]: 109%
Activity [38]: 120%
Structure (SMILES): CCCS(=O)(=O)Nc1cccc(Nc2ccc3ncn(C)c(=O)c3c2)c1C#N
inhibition in vivo at 30 mg/kg [2]: 95%
